Read-outs that look alike come from different tables or passages of the source. Non-standard residues stand in square brackets, D forms with d. Residues, ends and D or L forms follow the SMILES beside them. ξ: configuration not given here. *: point of attachment. 5FAM = O=C1OC2(c3ccc(O)cc3Oc3cc(O)ccc32)c2ccc(C(=O)*)cc21; Biotin = O=C1N[C@H]2[C@H](CS[C@H]2CCCCC(=O)*)N1; Ac6c = NC1(C(=O)O)CCCCC1; ξDap = NCC(N)C(=O)O; X2 = O=C1CCCC1N*
Tests used:
[1] = test system: Agrobacterium tumefaciens; conditions: 24 h
Protocol: (§1) Growth inhibition assays were performed using the peptides of Example 1 and the Gram positive microorganisms Micrococcus luteus and Bacillus megaterium, and the Gram negative microorganisms, Escherichia coli D22, Agrobacterium tumefaciens, and Salmonella typhimurium. Anti-bacterial assays were performed in sterilized 96-well plates (Nunc F96 microtiter plates) with a final volume of 100 μl as described in Bulet (1996), cited above. Briefly, 90 μl of a suspension of a midlogarithmic phase bacterial culture at an initial 600 nm UV absorbence of 0.001 in Luria-Bertani rich nutrient medium was added to 10 μl of serially diluted peptides in sterilized water. The final peptide concentrations ranged between 0.15 and 80 μM. The plates were incubated at 30° C. for 24 hours with gentle shaking, and the growth inhibition was measured by recording the increase of the UV absorbence at 600 nm on an SLT Labinstruments 400 ATC microplate reader. The experiments were conducted over a 7-month period.

Bacillus megaterium = test system: Bacillus megaterium
Protocol: as §1

Micrococcus luteus = test system: Micrococcus luteus
Protocol: as §1

Salmonella typhimurium = test system: Salmonella typhimurium
Protocol: as §1

[2] = human sera, preliminary metabolism studies
Protocol: Owing to the fact that the use of diluted serum increases peptide recovery as well as retards the reaction kinetics to a manageable rate, the experiments were conducted using 25% aqueous sera.
For serum stability studies, 10 μl of an aqueous peptide stock solution containing about 0.8 mg/ml peptide was added to 200 μl 25% aqueous pooled mouse or human serum (Sigma, St. Louis, Mo.), according to the process described in M. F. Powell et al, Pharmacol Res, 10: 1268–1273 (1993). The peptide-serum mixture was thermostated at 37° C. After 0 minutes, 45 minutes, 2 hours and 4 hours, three samples of each peptide were taken and precipitated by the addition of 40 μl 15% aqueous trichloroacetic acid. The samples were stored at 4° C. for 20 minutes and centrifuged. The peptides and some remaining serum proteins were recovered in the supernatant after the trichloroacetic acid precipitation. The supernatants were immediately frozen on dry-ice and 220 μl of each were analyzed on RP-HPLC. A mouse serum and two different batches of the same SIGMA catalog number of human sera (human 1, approximately 1 year old, and human 2, approximately 1 month old) were also used.
The lyophilized samples were redissolved in 0.1 aqueous TFA and submitted for matrix assisted laser desorption/ionization (MALDI-MS).
The missing residues are indicated (e.g—C2 means that the C-terminal two residues are cleaved off). […] In Table 4, the relative amounts of the degradation products are estimated based on the MALDI-MS peak heights. 0=not detected; 1=very weak (below 5000), 2=weak (5–10000), 3=medium (10–15000), 4=strong (15000-uncleaved molecular ion at 25–30000), 5=very strong (above uncleaved molecular ion).

COS cells = test: Direct killing of immortalized COS cells; format: cell-based
Source text: In another toxicity assay, COS cell survival was studied for pyrrhocoricin and cecropin B (Bachem Biosciences, King of Prussia, Pa.) as the positive control.

sheep erythrocytes = test: Hemolytic activity, release of hemoglobin; conditions: for Absorbence at 405 nm: 40 μM peptide, one hour, 39° C.
Protocol: To determine whether native and modified pyrrhocoricin peptides were toxic to mammalian cells, several peptides from Example 1 above, a positive control, and a negative control were examined for hemolytic activity. Hemolytic activity was assayed with sheep erythrocytes suspended in Alsever's solution (BioWhittaker, Walkersville, Md.), and diluted with Dulbecco's phosphate-buffered saline, pH 7.2. Thirty μL of a 1% suspension of the red blood cells was incubated with agitation at 39° C. with 30 μL of 40 to 256 μM of each of the following peptides dissolved in phosphate buffered saline for one hour and centrifuged at 1000 g for five minutes. Fifty μL of the supernatant was collected and the release of hemoglobin was detected by measuring the ultraviolet absorbences of triplicate samples of the 40 μM or 256 μM test peptides and the control peptides at 405 nm.

Escherichia coli D22 = conditions: read-out: IC50 in μM against Escherichia coli D22; 30° C., 24 hours; for Peptide 22 original assay (a)
Protocol: as §1

[3] = read-out: IC50 in μM against Bacillus megaterium, 30° C., 24 hours, for Peptide 22 original assay (a)

Molecule	IC50 [1]	IC50 (Bacillus megaterium; [3])	IC50 (Micrococcus luteus; 24 h)	IC50 (Salmonella typhimurium; murium, 24 h)	further results
Ac-RVDKGSYLPRPTPPRPIYNRN-NH2 (C-terminus assumed) [Peptide 4]	2.5 µM	> 80 µM	5 µM	2.5 µM	
CC[C@H](C)[C@@H]1NC(=O)[C@@H]2CCCN2C(=O)[C@H](CCCNC(=N)N)NC(=O)[C@@H]2CCCN2C(=O)[C@@H]2CCCN2C(=O)[C@H]([C@@H](C)O)NC(=O)[C@@H]2CCCN2C(=O)[C@H](CCCNC(=N)N)NC(=O)[C@@H]2CCCN2C(=O)[C@H](CC(C)C)NC(=O)[C@H](Cc2ccc(O)cc2)NC(=O)[C@H](CO)NC(=O)CNC(=O)[C@H](CCCCN)NC(=O)[C@H](CC(=O)O)NC(=O)[C@H](C(C)C)NC(=O)[C@H](CCCCN)NC(=O)[C@H](CC(C)C)NC(=O)[C@@H]2CCCN2C(=O)[C@H](CCCNC(=N)N)NC(=O)[C@@H]2CCCN2C(=O)[C@H]([C@@H](C)O)NC(=O)[C@@H]2CCCN2C(=O)[C@@H]2CCCN2C(=O)[C@H](CCCNC(=N)N)NC(=O)[C@H](CC(N)=O)NC(=O)[C@H](CCCNC(=N)N)NC(=O)[C@H](CC(N)=O)NC(=O)[C@H](Cc2ccc(O)cc2)NC1=O [Peptide 17] (cyclo(KVDKGSYLPRPTPPRPIYNRNRPPTPRPL))	2.5 µM		0.6 µM	5 µM	IC50 (Bacillus megaterium; Bacillus, 24 h): 2.5 µM; endopeptidase cleavage site [2]: between Asn 18 and Arg19
Cecropin [reference compound]					Cell Count after Treatment (COS cells; 5 μM peptide): 6 ± 6; Cell Count after Treatment (COS cells; 10 μM peptide): 6.7 ± 0.3; Cell Count after Treatment (COS cells; 50 μM peptide): 7.3 ± 3.7; effect on COS cell count (in words) (COS cells; at as low as 5 μM concentration): reduced the cell count
CC[C@H](C)[C@H](NC(=O)[C@@H]1CCCN1C(=O)[C@H](CCCNC(=N)N)NC(=O)[C@@H]1CCCN1C(=O)[C@@H]1CCCN1C(=O)[C@@H](NC(=O)[C@@H]1CCCN1C(=O)[C@H](CCCNC(=N)N)NC(=O)[C@@H]1CCCN1C(=O)[C@H](CC(C)C)NC(=O)[C@H](Cc1ccc(O)cc1)NC(=O)[C@H](CO)NC(=O)CNC(=O)[C@H](CCCCN)NC(=O)[C@H](CC(=O)O)NC(=O)C1(N)CCCCC1)[C@@H](C)O)C(=O)N[C@@H](Cc1ccc(O)cc1)C(=O)N[C@@H](CC(N)=O)C(=O)N[C@@H](CCCNC(=N)N)C(=O)N[C@@H](CC(N)=O)C(N)=O [Peptide 6] (H-[Ac6c]DKGSYLPRPTPPRPIYNRN-NH2; N-terminus and C-terminus assumed)	1.25 µM		5 µM	2.5 µM	IC50 (Bacillus megaterium; Bacillus, 24 h): 10 µM
Ac-KVDKGSYLPRPTPPRPIYNRN-NH2 (C-terminus assumed) [Peptide 5]	5 µM	> 80 µM	40 µM	40 µM	
CC[C@H](C)[C@H](NC(=O)[C@@H]1CCCN1C(=O)[C@H](CCCNC(=N)N)NC(=O)[C@@H]1CCCN1C(=O)[C@@H]1CCCN1C(=O)[C@@H](NC(=O)[C@@H]1CCCN1C(=O)[C@H](CCCNC(=N)N)NC(=O)[C@@H]1CCCN1C(=O)[C@H](CC(C)C)NC(=O)[C@H](Cc1ccc(O)cc1)NC(=O)[C@H](CO)NC(=O)CNC(=O)[C@H](CCCCN)NC(=O)[C@H](CC(=O)O)NC(=O)[C@H](N)C(C)C)[C@@H](C)O)C(=O)N[C@@H](Cc1ccc(O)cc1)C(=O)N[C@@H](CC(N)=O)C(=O)N[C@@H](CCCNC(=N)N)C(=O)N[C@H](CC(N)=O)C(N)=O [Peptide 12] (H-[dV]DKGSYLPRPTPPRPIYNR[dN]-NH2; N-terminus and C-terminus assumed)	2.5 µM	> 80 µM	10 µM	5 µM	
CC[C@H](C)[C@H](NC(=O)[C@@H]1CCCN1C(=O)[C@H](CCCNC(=N)N)NC(=O)[C@@H]1CCCN1C(=O)[C@@H]1CCCN1C(=O)[C@@H](NC(=O)[C@@H]1CCCN1C(=O)[C@H](CCCNC(=N)N)NC(=O)[C@@H]1CCCN1C(=O)[C@H](CC(C)C)NC(=O)[C@H](Cc1ccc(O)cc1)NC(=O)[C@H](CO)NC(=O)CNC(=O)[C@H](CCCCN)NC(=O)[C@H](CC(=O)O)NC(=O)[C@@H](NC(=O)[C@H](CCCCN)NC(C)=O)C(C)C)[C@@H](C)O)C(=O)N[C@@H](Cc1ccc(O)cc1)C(=O)N[C@@H](CC(N)=O)C(=O)N[C@@H](CCCNC(=N)N)C(=O)NC1CCCC1=O (stereo partly shown) [Peptide 8] (Ac-KVDKGSYLPRPTPPRPIYNR-X2; N-terminus and C-terminus assumed)	1.25 µM		5 µM	2.5 µM	IC50 (Bacillus megaterium; Bacillus, 24 h): 20 µM
CC[C@H](C)[C@H](NC(=O)[C@@H]1CCCN1C(=O)[C@H](CCCNC(=N)N)NC(=O)[C@@H]1CCCN1C(=O)[C@@H]1CCCN1C(=O)[C@@H](NC(=O)[C@@H]1CCCN1C(=O)[C@H](CCCNC(=N)N)NC(=O)[C@@H]1CCCN1C(=O)[C@H](CC(C)C)NC(=O)[C@H](Cc1ccc(O)cc1)NC(=O)[C@H](CO)NC(=O)CNC(=O)[C@H](CCCCN)NC(=O)[C@H](CC(=O)O)NC(=O)[C@@H](NC(=O)[C@H](CCCCN)NC(=O)c1ccc2c(c1)C(=O)OC21c2ccc(O)cc2Oc2cc(O)ccc21)C(C)C)[C@@H](C)O)C(=O)N[C@@H](Cc1ccc(O)cc1)C(=O)N[C@@H](CC(N)=O)C(=O)N[C@@H](CCCNC(=N)N)C(=O)N[C@@H](CC(N)=O)C(N)=O [Peptide 19] (5FAM-KVDKGSYLPRPTPPRPIYNRN-NH2)		> 80 µM			
CC[C@H](C)[C@H](NC(=O)CN)C(=O)NCC(=O)N[C@@H](C)C(=O)N[C@H](C(=O)N[C@@H](CC(C)C)C(=O)N[C@@H](CCCCN)C(=O)N[C@H](C(=O)N[C@@H](CC(C)C)C(=O)N[C@H](C(=O)N[C@H](C(=O)NCC(=O)N[C@@H](CC(C)C)C(=O)N1CCC[C@H]1C(=O)N[C@@H](C)C(=O)N[C@@H](CC(C)C)C(=O)N[C@H](C(=O)N[C@@H](CO)C(=O)N[C@@H](Cc1c[nH]c2ccccc12)C(=O)N[C@H](C(=O)N[C@@H](CCCCN)C(=O)N[C@@H](CCCNC(=N)N)C(=O)N[C@@H](CCCCN)C(=O)N[C@@H](CCCNC(=N)N)C(=O)N[C@@H](CCC(N)=O)C(=O)N[C@@H](CCC(N)=O)C(N)=O)[C@@H](C)CC)[C@@H](C)CC)[C@@H](C)O)[C@@H](C)O)C(C)C)C(C)C [Melittin, reference compound]					lowest concentration that lysed sheep erythrocytes (sheep erythrocytes): 5 µM; Absorbence at 405 nm (sheep erythrocytes): 2.99 ± 0.06; lysis of erythrocytes (in words) (sheep erythrocytes; final concentration of 40 μM): lysed the erythrocytes
Ac-KVDKVDKGSYLPRPTPPRPIYNRN-NH2 (C-terminus assumed) [Peptide 3]	10 µM	> 80 µM	80 µM	5 µM	
CC[C@H](C)[C@H](NC(=O)[C@@H]1CCCN1C(=O)[C@H](CCCNC(=N)N)NC(=O)[C@@H]1CCCN1C(=O)[C@@H]1CCCN1C(=O)[C@@H](NC(=O)[C@@H]1CCCN1C(=O)[C@H](CCCNC(=N)N)NC(=O)[C@@H]1CCCN1C(=O)[C@H](CC(C)C)NC(=O)[C@H](Cc1ccc(O)cc1)NC(=O)[C@H](CO)NC(=O)CNC(=O)[C@H](CCCCN)NC(=O)[C@H](CC(=O)O)NC(=O)[C@@H](NC(=O)[C@H](CCCCN)NC(=O)CCCC[C@@H]1SC[C@@H]2NC(=O)N[C@@H]21)C(C)C)[C@@H](C)O)C(=O)N[C@@H](Cc1ccc(O)cc1)C(=O)N[C@@H](CC(N)=O)C(=O)N[C@@H](CCCNC(=N)N)C(=O)N[C@@H](CC(N)=O)C(N)=O [Peptide 18] (Biotin-KVDKGSYLPRPTPPRPIYNRN-NH2)		> 80 µM			
CC[C@H](C)[C@H](NC(=O)[C@@H]1CCCN1C(=O)[C@H](CCCNC(=N)N)NC(=O)[C@@H]1CCCN1C(=O)[C@@H]1CCCN1C(=O)[C@@H](NC(=O)[C@@H]1CCCN1C(=O)[C@H](CCCNC(=N)N)NC(=O)[C@@H]1CCCN1C(=O)[C@H](CC(C)C)NC(=O)[C@H](Cc1ccccc1)NC(=O)[C@H](C)NC(=O)CNC(=O)[C@H](CCCCN)NC(=O)[C@H](CC(=O)O)NC(=O)C1(N)CCCCC1)[C@@H](C)O)C(=O)N[C@@H](Cc1ccc(O)cc1)C(=O)N[C@@H](CC(N)=O)C(=O)N[C@@H](CCCNC(=N)N)C(=O)NC(CNC(C)=O)C(N)=O (stereo partly shown) [Peptide 23] (H-[Ac6c]DKGAFLPRPTPPRPIYNR[ξDap](Ac)-NH2)			5 µM		IC50 (Bacillus megaterium; Bacillus, 24 h): 40 µM; IC50 (Escherichia coli D22): 20 µM
Ac-KVDKGSYLPRPTPPRPIYNRD-NH2 (C-terminus assumed) [Peptide 20]	40 µM	> 80 µM			IC50 (Micrococcus luteus; read-out: IC50 in μM against Micrococcus luteus, 30° C., 24 hours, for Peptide 22 original assay (a)): > 80 µM; IC50 (Salmonella typhimurium; read-out: IC50 in μM against Salmonella typhimurium, 30° C., 24 hours, for Peptide 22 original assay (a)): > 80 µM
CC[C@H](C)[C@H](NC(=O)[C@H](CCCNC(=N)N)NC(=O)[C@@H](NC(=O)[C@H](Cc1ccc(O)cc1)NC(=O)[C@@H](NC(=O)[C@H](C)N)C(C)C)[C@@H](C)O)C(=O)N[C@@H](CCSC)C(=O)N[C@@H](CCSC)C(=O)N[C@@H](CC(N)=O)C(=O)NCC(=O)NCC(=O)N[C@@H](CCCNC(=N)N)C(=O)N[C@@H](CC(C)C)C(=O)N[C@@H](CCCCN)C(=O)N[C@@H](CCCNC(=N)N)C(N)=O [Peptide 31D, reference compound]					Absorbence at 405 nm (sheep erythrocytes): 0.160 ± 0.021

From patent US7015309B1 (The Wistar Institute of Anatomy and Biology, priority 1999, dated 2006)
